Data on 38 compounds can be found in US9920042B2, “Compounds for use in the treatment of mycobacterial infections” (Universite de Droit et de la Sante de Lille 2, priority 2012, dated 2018).

The target of experiment [1] is EthR protein (Mycobacterium tuberculosis, UniProt P9WMC1). The experiment can be described thus: TSA test (Thermal Shift Assay), fluorescence with Sypro Orange. In kind it is binding, M. tuberculosis. The following applies: melting temperature shift of EthR with ligand vs protein alone.
Sequence of EthR protein (P9WMC1 whole entry, looked up): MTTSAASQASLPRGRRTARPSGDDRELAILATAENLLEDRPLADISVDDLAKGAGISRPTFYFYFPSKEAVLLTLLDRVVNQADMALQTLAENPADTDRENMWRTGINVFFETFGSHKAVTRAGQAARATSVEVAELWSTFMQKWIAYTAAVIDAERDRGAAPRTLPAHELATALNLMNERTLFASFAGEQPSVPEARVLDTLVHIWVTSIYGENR
For experiment [2], the system named is M. tuberculosis alone or macrophages infected by M. tuberculosis. The experiment can be described thus: Potentiation of ethionamide cell test (High Content Screening). Format: cell-based. The following applies: ligand concentration potentiating ten times the activity of ethionamide; ethionamide constant at 0.1 μg/mL (1/10th of its CMI99); read-out: EC50.

What is called ΔTm is the change in melting temperature against a reference sample. A word on the EC50: it is the concentration at which the effect is half-maximal. Take `CC(C)OC(=O)c1nc(-c2ccc(C(=O)NCCC(F)(F)F)cc2)cs1` [Compound 55, 4-(4-(3,3,3-trifluoropropylcarbamoyl)phenyl)thiazole-2-isopropyl carboxylate]: the ΔTm in experiment [1] amounted to 8.2 °C. Further, the EC50 in experiment [2] worked out at 730 nM. For `Cc1csc(-c2ccc(S(=O)(=O)NCCC(F)(F)F)cc2)n1` [Compound 41, 4-(4-methylthiazol-2-yl)-N-(3,3,3-trifluoropropyl)benzene sulfonamide] the same measures were 6.8 °C and 660 nM. For `CC(C)(C)S(=O)(=O)Cc1nc(-c2ccc(S(=O)(=O)NCCC(F)(F)F)cc2)cs1` [Compound 39, 4-(2-(tert-butylsulfonylmethyl)thiazol-4-yl)-N-(3,3,3-trifluoropropyl)-benzene sulfonamide] the same measures were 7.3 °C and 200 nM.

For the compound `Cc1nc(-c2ccc(S(=O)(=O)NCC(F)(F)F)cc2)cs1` [Compound 26, 4-(2-methylthiazol-4-yl)-N-(2,2,2-trifluoroethyl)benzene sulfonamide], the ΔTm in experiment [1] stood at 6.3 °C. In addition, the EC50 in experiment [2] amounted to 7900 nM. For `CC(C)CCNS(=O)(=O)c1ccc(-c2csc(CC#N)n2)cc1` [Compound 17, 4-(2-(cyanomethyl)thiazol-4-yl)-N-isopentyl benzene sulfonamide] the same measures were 5.3 °C and 7900 nM. For `Cc1nc(-c2ccc(C(=O)NCCC(F)(F)F)cc2)c(Cl)s1` [Compound 64, 4-(5-chloro-2-methylthiazol-4-yl)-N-(3,3,3-trifluoropropyl)benzamide] the same measures were 8.7 °C and 350 nM.

In the case of `CCOC(=O)Cc1nc(-c2ccc(C(=O)NCCC(F)(F)F)cc2)cs1` [Compound 52], the ΔTm in experiment [1] stood at 10.1 °C. The EC50 in experiment [2] amounted to 190 nM. For `O=C(NCCC(F)(F)F)c1ccc(C#CCNS(=O)(=O)c2ccccc2)cc1` [Compound 112, 4-(3-(phenylsulfonamido)prop-1-ynyl)-N-(3,3,3-trifluoropropyl)-benzamide] the same measures were 4.2 °C and 230 nM. `CC(C)CCc1cn(-c2ccc(C(=O)NCCC(F)(F)F)cc2)nn1` [Compound 93, 4-(4-isopentyl-1H-1,2,3-triazol-1-yl)-N-(3,3,3-trifluoropropyl)benzamide]: the ΔTm in experiment [1] turned out to be 3.8 °C. In experiment [2], the EC50 is > 10000 nM.

Take `Cc1nnc(-c2ccc(C(=O)NCCC(F)(F)F)cc2)o1` [Compound 80, 4-(5-methyl-1,3,4-oxadiazol-2-yl)-N-(3,3,3-trifluoropropyl)benzamide]: in experiment [2], the EC50 came out at 960 nM.

With `Cc1nc(-c2ccc(S(=O)(=O)NCCC(C)(C)C)cc2)cs1` [Compound 23, N-(3,3-dimethylbutyl)-4-(2-methylthiazol-4-yl)benzene sulfonamide], the ΔTm in experiment [1] worked out at 2.3 °C. Moreover, the EC50 in experiment [2] was > 20000 nM. For `COC(=O)Cc1nc(-c2ccc(S(=O)(=O)NCCC(F)(F)F)cc2)cs1` [Compound 33, 2-(4-(4-(N-(3,3,3-trifluoropropyl)sulfamoyl)phenyl)thiazol-2-yl)methyl acetate] the same measures were 9.5 °C and 860 nM. For `O=C(NCCC(F)(F)F)c1ccc(-n2cc(CCO)nn2)cc1` [Compound 97, 4-(4-(2-hydroxyethyl)-1H-1,2,3-triazol-1-yl)-N-(3,3,3-trifluoropropyl)-benzamide] the same measures were 1.2 °C and 2000 nM. Regarding `Cc1nc(-c2ccc(C(=O)NCCC(F)(F)F)cn2)cs1` [Compound 71, 6-(2-methylthiazol-4-yl)-N-(3,3,3-trifluoropropyl)nicotinamide], the EC50 in experiment [2] amounted to 1700 nM. Consider `Cc1nc(-c2ccc(S(=O)(=O)NCC(F)(F)C(F)(F)F)cc2)cs1` [Compound 25, 4-(2-methylthiazol-4-yl)-N-(2,2,3,3,3-pentafluoropropyl)benzene sulfonamide], for which the ΔTm in experiment [1] stood at 8.6 °C. Moreover, the EC50 in experiment [2] is > 20000 nM. Take `Cc1nc(-c2ccc(C(=O)NCCC(F)(F)F)cc2)c(F)s1` [Compound 62, 4-(5-fluoro-2-mthylthiazol-4-yl)-N-(3,3,3-trifluoropropyl)benzamide]: the EC50 in experiment [2] was 55 nM. For `O=C(NCCC(F)(F)F)c1ccc(-n2cc(C3CC3)nn2)cc1` [Compound 95, 4-(4-cyclopropyl-1H-1,2,3-triazol-1-yl)-N-(3,3,3-trifluoropropyl)-benzamide], the ΔTm in experiment [1] was determined as 3.5 °C. Moreover, the EC50 in experiment [2] came to 1700 nM. For `O=C(NCCC(F)(F)F)c1ccc(-c2cscn2)cc1` [Compound 56, 4-(thiazol-4-yl)-N-(3,3,3-trifluoropropyl)benzamide] the same measures were 8.1 °C and 360 nM.

In the case of `CCOC(=O)c1nc(-c2ccc(C(=O)NCCC(F)(F)F)cc2)cs1` [Compound 54, 4-(4-(3,3,3-trifluoropropylcarbamoyl)phenyl)thiazole-2-ethyl carboxylate], the ΔTm in experiment [1] came out at 9.6 °C. The EC50 in experiment [2] is > 2500 nM. On to `CC(C)NC(=O)Cc1nc(-c2ccc(S(=O)(=O)NCCC(F)(F)F)cc2)cs1` [Compound 36, N-isopropyl-2-(4-(4-(N-(3,3,3-trifluoropropyl)sulfamoyl)phenyl)thiazol-2-yl)acetamide], for which the EC50 in experiment [2] came to 210 nM. On the same count and under the same terms, then `Cc1noc(-c2ccc(C(=O)NCCC(F)(F)F)cc2)n1` [Compound 78, 4-(3-methyl-1,2,4-oxadiazol-5-yl)-N-(3,3,3-trifluoropropyl)benzamide], with 210 nM. On the same count and under the same terms, then `Cc1nnc(-c2ccc(C(=O)NCCC(F)(F)F)cc2)s1` [Compound 83, 4-(5-methyl-1,3,4-thiadiazol-2-yl)-N-(3,3,3-trifluoropropyl)benzamide], with 1400 nM; and `Cc1nc(-c2ccc(C(=O)NCCC(F)(F)F)cc2)co1` [Compound 72, 4-(2-methyloxazol-4-yl)-N-(3,3,3-trifluoropropyl)benzamide], with 180 nM. For `CCOC(=O)Cc1nc(-c2ccc(S(=O)(=O)NCCC(F)(F)F)cc2)cs1` [Compound 34], the ΔTm in experiment [1] was 0.15 °C. Besides, the EC50 in experiment [2] amounted to 150 nM.

For `O=S(=O)(NCC#Cc1ccc(S(=O)(=O)NCCC(F)(F)F)cc1)c1ccccc1` [Compound 106, 4-(3-(phenylsulfonamido)prop-1-ynyl)-N-(3,3,3-trifluoropropyl)-benzene sulfonamide], in experiment [1], the thermal shift (ΔTm) was found to be 3.3 °C. Besides, the EC50 in experiment [2] was found to be 1800 nM. Regarding `O=S(=O)(NCCC(F)(F)F)c1ccc(-c2nc3ccccc3s2)cc1` [Compound 42, 4-(benzo[d]thiazol-2-yl)-N-(3,3,3-trifluoropropyl)benzene sulfonamide], the 50% effective concentration (EC50) in experiment [2] came to 300 nM.

Turning to `CC(C)(C)S(=O)(=O)Cc1nc(-c2ccc(C(=O)NCCC(F)(F)F)cc2)cs1` [Compound 50, 4-(2-(tert-butylsulfonylmethyl)thiazol-4-yl)-N-(3,3,3-trifluoropropyl)-benzamide], the ΔTm in experiment [1] is 9.6 °C. The EC50 in experiment [2] came to 41 nM. For `CS(=O)(=O)NCC#Cc1ccc(S(=O)(=O)NCCC(F)(F)F)cc1` [Compound 108, 4-(3-(methylsulfonamido)prop-1-ynyl)-N-(3,3,3-trifluoropropyl)-benzene sulfonamide] the same measures were 1.4 °C and > 10000 nM. For `CC(C)CCCc1nc(-c2ccc(C(=O)NCCC(F)(F)F)cc2)cs1` [Compound 47, 4-(2-(4-methylpentyl)thiazol-4-yl)-N-(3,3,3-trifluoropropyl)benzamide] the same measures were 13.0 °C and 30 nM. For `O=C(NCCC(F)(F)F)c1ccc(-c2csc(CNS(=O)(=O)c3ccccc3)n2)cc1` [Compound 104, 4-(2-(phenylsulfonamidomethyl)thiazol-4-yl)-N-(3,3,3-trifluoro-propyl)benzamide] the same measures were 1.2 °C and 150 nM. With `CC(C)OC(=O)Cc1nc(-c2ccc(C(=O)NCCC(F)(F)F)cc2)cs1` [Compound 53, 2-(4-(4-(3,3,3-trifluoropropylcarbamoyl)phenyl)thiazol-2-yl(isopropyl acetate], the ΔTm in experiment [1] was found to be 13.2 °C. For the same compound, the EC50 in experiment [2] is 330 nM.

In the case of `O=C(NCCC(F)(F)F)c1ccc(-c2nsc(CO)n2)cc1` [Compound 90, 4-(5-(hydroxymethyl)-1,2,4-thiadiazol-3-yl)-N-(3,3,3-trifluoropropyl)-benzamide], in experiment [2], the half-maximal effective concentration (EC50) is 130 nM. On to `CC(C)Cc1cn(-c2ccc(C(=O)NCCC(F)(F)F)cc2)nn1` [Compound 94, 4-(4-isobutyl-1H-1,2,3-triazol-1-yl)-N-(3,3,3-trifluoropropyl)benzamide], for which the ΔTm in experiment [1] is 4.1 °C. Also, the EC50 in experiment [2] stood at 1200 nM. For `CCCS(=O)(=O)NCc1nc(-c2ccc(C(=O)NCCC(F)(F)F)cc2)cs1` [Compound 103, 4-(2-(propylsulfonamidomethyl)thiazol-4-yl)-N-(3,3,3-trifluoropropyl)benzamide] the same measures were 6.6 °C and 320 nM. As to `Cc1nc(-c2ccc(C(=O)NCCC(F)(F)F)cc2)no1` [Compound 75, 4-(5-methyl-1,2,4-oxadiazol-3-yl)-N-(3,3,3-trifluoropropyl)benzamide], in experiment [2], the EC50 came out at 62 nM.

As for `Cc1nc(-c2ccc(S(=O)(=O)NCCCC(F)(F)F)cc2)cs1` [Compound 27, 4-(2-methylthiazol-4-yl)-N-(4,4,4-trifluorobutyl)benzene sulfonamide], the ΔTm in experiment [1] stood at 6.6 °C. In addition, the half-maximal effective concentration (EC50) in experiment [2] is > 2500 nM. For `CC(C)CCNS(=O)(=O)c1ccc(-c2csc(CC(N)=O)n2)cc1` [Compound 21, 2-(4-(4-(N-isopentylsulfamoyl)phenyl)thiazol-2-yl)acetamide] the same measures were 4.6 °C and 5000 nM. In the case of `Cc1nc(-c2ccc(C(=O)NCCC(F)(F)F)nc2)cs1` [Compound 67, 5-(2-methylthiazol-4-yl)-N-(3,3,3-trifluoropropyl)picolinamide], in experiment [2], the concentration giving a half-maximal response (EC50) was determined as 120 nM.
